Several values for one entry are separate records, joined by “and”; a condition that tells them apart may be missing. Equal entries are not always repeated.
Experiments:
Experiment in all cases: Post-emergence/greenhouse herbicidal test
Format in all cases: in vivo
[1] = test system: Chenopodium album; settings: post-emergence, about 3 weeks
From the text: (§1) Procarbazone- and flucarbazone-sodium were used as 70 WG formulation. Fenoxaprop-P-ethyl was used in a mixture with mefenpyr-diethyl (75 g of mefenpyr-diethyl/l) as Ralon® Super 69 EW. Cinidon-ethyl and florasulam and iodosufuron in a mixture with mefenpyr-diethyl were used in the form of the finished formulations Lotus® 200 EC, Primus® 50 SC and Hussar® 5 WG (15% mefenpyr-diethyl), respectively. Amicarbazone was used as 70 WG formulation.
(§2) In pre- and post-emergence experiments, the spray liquor is usually admixed with a surfactant (Renex 36), at a concentration of 0.1%.
(§3) Test plants are grown under controlled conditions (temperature and light).
(§4) Following the spray application, the plant containers are kept in a greenhouse under constant light and temperature conditions.
(§5) After about 3 weeks, the degree of damage to the plants is rated in % damage in comparison to the development of the untreated control.
(§6) 0% =no damage (like untreated control)
(§7) 100% =total destruction/damage

[2] = test system: Digitaria sanguinalis; settings: post-emergence, about 3 weeks
From the text: as §1, §2, §3, §4, §5, §6, §7

[3] = test system: Abutilon theophrasti; settings: post-emergence, about 3 weeks
From the text: as §1, §2, §3, §4, §5, §6, §7

[4] = test system: Galium aparine; settings: post-emergence, about 3 weeks
From the text: as §1, §2, §3, §4, §5, §6, §7

[5] = test system: Datura strumarium; settings: post-emergence, about 3 weeks
From the text: as §1, §2, §3, §4, §5, §6, §7

[6] = test system: Avena fatua
From the text: as §1, §2, §3, §4, §5, §6, §7

[7] = test system: Cassia tora
From the text: as §1, §2, §3, §4, §5, §6, §7

[8] = test system: Veronica persicaria; settings: 60 g of ai/ha, post-emergence, about 3 weeks
From the text: as §1, §2, §3, §4, §5, §6, §7

[9] = test system: Amaranthus retroflexus; settings: post-emergence, about 3 weeks
From the text: as §1, §2, §3, §4, §5, §6, §7

[10] = test system: Viola arvensis; settings: post-emergence, about 3 weeks
From the text: as §1, §2, §3, §4, §5, §6, §7

[11] = test system: Stellaria media; settings: post-emergence, about 3 weeks
From the text: as §1, §2, §3, §4, §5, §6, §7

[12] = test system: Alopecurus myosuroides; settings: post-emergence, about 3 weeks
From the text: as §1, §2, §3, §4, §5, §6, §7

[13] = test system: Matricaria inodora
From the text: as §1, §2, §3, §4, §5, §6, §7

[14] = test system: Echinochloa crus-galli
From the text: as §1, §2, §3, §4, §5, §6, §7

[15] = test system: Polygonum convolvolus; settings: post-emergence, about 3 weeks
From the text: as §1, §2, §3, §4, §5, §6, §7

[16] = test system: Lolium perenne; settings: post-emergence, about 3 weeks
From the text: as §1, §2, §3, §4, §5, §6, §7

[17] = test system: Xanthium strumarium; settings: post-emergence, about 3 weeks
From the text: as §1, §2, §3, §4, §5, §6, §7

[18] = test system: Eriochloa villosa; settings: 60 g of ai/ha, post-emergence, about 3 weeks
From the text: as §1, §2, §3, §4, §5, §6, §7

[19] = test system: Bromus secalinus; settings: post-emergence, about 3 weeks
From the text: as §1, §2, §3, §4, §5, §6, §7

[20] = 15 g of ai/ha, post-emergence, about 3 weeks
[21] = 30 g of ai/ha, post-emergence, about 3 weeks
[22] = 60 g of ai/ha, post-emergence, about 3 weeks

COc1nn(C(=O)NS(=O)(=O)c2ccccc2OC(F)(F)F)c(=O)n1C [Flucarbazone-sodium, 2-(2-trifluoromethoxy-phenylsulphonylaminocarbonyl)-4-methyl-5-methoxy-2,4-dihydro-3H-1,2,4-triazol-3-one]
Chenopodium album observed ([1]; 15 g of ai/ha): 50%
Chenopodium album observed ([1]; 30 g of ai/ha): 50%
Chenopodium album observed ([1]; 60 g of ai/ha): 70%
Digitaria sanguinalis observed ([2]; 30 g of ai/ha): 20%
Digitaria sanguinalis observed ([2]; 60 g of ai/ha): 20%
Abutilon theophrasti observed ([3]; 15 g of ai/ha): 0%
Abutilon theophrasti observed ([3]; 30 g of ai/ha): 0%
Abutilon theophrasti observed ([3]; 60 g of ai/ha): 0%
Galium aparine observed ([4]; 15 g of ai/ha): 0%
Galium aparine observed ([4]; 30 g of ai/ha): 0%
Galium aparine observed ([4]; 60 g of ai/ha): 0%
Datura strumarium observed ([5]; 15 g of ai/ha): 70%
Datura strumarium observed ([5]; 60 g of ai/ha): 80%
Avena fatua observed [6, 20]: 80%
Avena fatua observed [6, 21]: 90%
Avena fatua observed [6, 22]: 90%
Avena fatua observed ([6]; Table B-62, application rate 15 g ai/ha): 80
Avena fatua observed ([6]; application rate 15 g ai/ha): 70
Avena fatua observed ([6]; application rate 30 g ai/ha): 70
Avena fatua observed ([6]; application rate 60 g ai/ha): 70
Cassia tora observed [7, 20]: 50%
Cassia tora observed [7, 21]: 50%
Cassia tora observed [7, 22]: 50%
Cassia tora observed ([7]; application rate 15 g ai/ha): 0
Veronica persicaria observed [8]: 0%
Amaranthus retroflexus observed ([9]; 15 g of ai/ha): 90%
Amaranthus retroflexus observed ([9]; 30 g of ai/ha): 90%
Amaranthus retroflexus observed ([9]; 60 g of ai/ha): 90%
Viola arvensis observed ([10]; 15 g of ai/ha): 60% and 50% and 80%
Viola arvensis observed ([10]; 30 g of ai/ha): 50%
Viola arvensis observed ([10]; 60 g of ai/ha): 50%
Stellaria media observed ([11]; 15 g of ai/ha): 0%
Stellaria media observed ([11]; 30 g of ai/ha): 60%
Stellaria media observed ([11]; 60 g of ai/ha): 95%
Alopecurus myosuroides observed ([12]; 15 g of ai/ha): 70%
Alopecurus myosuroides observed ([12]; 30 g of ai/ha): 70%
Alopecurus myosuroides observed ([12]; 60 g of ai/ha): 70%
Matricaria inodora observed [13, 22]: 20%
Matricaria inodora observed ([13]; application rate 15 g ai/ha): 20
Matricaria inodora observed ([13]; application rate 30 g ai/ha): 60
Matricaria inodora observed ([13]; application rate 60 g ai/ha): 60
Echinochloa crus-galli observed [14, 20]: 50%
Echinochloa crus-galli observed [14, 22]: 90%
Echinochloa crus-galli observed ([14]; application rate 15 g ai/ha): 60
Echinochloa crus-galli observed ([14]; application rate 30 g ai/ha): 70
Echinochloa crus-galli observed ([14]; application rate 60 g ai/ha): 90
Polygonum convolvolus observed ([15]; 15 g of ai/ha): 60%
Polygonum convolvolus observed ([15]; 30 g of ai/ha): 70%
Polygonum convolvolus observed ([15]; 60 g of ai/ha): 70%
Lolium perenne observed ([16]; 15 g of ai/ha): 80%
Lolium perenne observed ([16]; 30 g of ai/ha): 90%
Lolium perenne observed ([16]; 60 g of ai/ha): 90%
Xanthium strumarium observed ([17]; 15 g of ai/ha): 20%
Xanthium strumarium observed ([17]; 30 g of ai/ha): 40%
Xanthium strumarium observed ([17]; 60 g of ai/ha): 60%
Eriochloa villosa observed [18]: 70%
Bromus secalinus observed ([19]; 15 g of ai/ha): 70%
Bromus secalinus observed ([19]; 30 g of ai/ha): 70% and 90%
Bromus secalinus observed ([19]; 60 g of ai/ha): 80% and 90%
